Here are results for 46 compounds from patent US11584766B2, “Nicotinamide phosphoribosyltransferase inhibitors and methods for use of the same” (THE TRUSTEES OF INDIANA UNIVERSITY, priority 2018, dated 2023).

The target in series [1] is T1, NAMPT (Homo sapiens, UniProt P43490).
T1 construct: purchased MBL International Corporation (CycLex NAMPT Colorimetric Assay Kit Ver.2)
As to the kind of experiment: CycLex NAMPT Colorimetric Assay. In kind it is biochemical. The settings on record: for IC50: CycLex NAMPT Colorimetric Assay Kit, read-out: NAMPT Inhibition IC50. The protocol: The ability of the compounds of the disclosure to inhibit NAMPT was determined using the CycLex NAMPT Colorimetric Assay Kit Ver.2 by MBL International Corporation.
The assay detects NAMPT activity in recombinant NAMPT or endogenous NAMPT immunoprecipiated from cell lysates according to the scheme shown in FIG. 3. In this method, NAMPT converts nicotinamide to nicotinamide mononucleotide (“NMN”). Subsequently, nicotinamide mononucleotide adenylyltransferase 1 (“NMNAT1”) converts NMN to NAD^+. Resultant NAD^+ can be measured by enzyme cycling reaction using alcohol dehydrogenase (“ADH”), diaphorase and WST-1.

Series [2] can be described thus: Solubility (2.5% v/v DMSO/water). It counts as physicochemical.

Molecules are shown by their SMILES. Structures can show the parent of a compound that is named as a salt. Where only a bound is given, the exact number is not on record here.

T1 sequence (P43490 whole entry): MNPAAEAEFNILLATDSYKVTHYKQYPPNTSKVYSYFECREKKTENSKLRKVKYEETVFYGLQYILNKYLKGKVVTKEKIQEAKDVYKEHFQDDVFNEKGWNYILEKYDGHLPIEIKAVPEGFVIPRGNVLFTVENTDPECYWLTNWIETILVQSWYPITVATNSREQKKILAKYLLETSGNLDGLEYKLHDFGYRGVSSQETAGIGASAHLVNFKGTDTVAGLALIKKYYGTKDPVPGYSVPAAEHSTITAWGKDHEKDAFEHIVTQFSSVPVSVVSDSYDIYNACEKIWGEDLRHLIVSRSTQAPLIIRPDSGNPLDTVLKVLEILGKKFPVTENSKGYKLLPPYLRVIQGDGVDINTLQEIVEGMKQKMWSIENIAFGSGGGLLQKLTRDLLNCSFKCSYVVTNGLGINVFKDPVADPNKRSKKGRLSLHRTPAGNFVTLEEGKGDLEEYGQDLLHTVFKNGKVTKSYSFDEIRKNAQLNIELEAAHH

With `C[Si]1(C)CN(C(=O)CCCCCNC(=O)CCc2cccnc2)c2ccccc21` [DGMS-RAR-4H2], the IC50 (commonly the concentration at which inhibition is half-maximal) in series [1] was 1.59 µM.
Same read-out and setting: then `[2H][C@@H](C(=O)NCCCCCCn1c(-c2ccccc2)cc2ccccc21)[C@@H]([2H])c1cccnc1`, with 0.092 µM.
Still for that read-out and setting: the value for `CC[Si]1(CC)c2ccccc2N(C(=O)CCCCCNC(=O)CCc2cccnc2)C1C` (stereo not drawn) [DGMS-RAR-5H2] was 0.368 µM.
On the same count and under the same terms, then `CCOC(=O)CC1CN(C(=O)CCCCCNC(=O)/C=C/c2cccnc2)c2ccccc21` (stereo not drawn) [DGMS-RAR-PEG3E], with 0.044 µM; and `O=C(CCc1cccnc1)NCCCCCCn1c(-c2ccccc2)cc2ccccc21`, with around 10 µM.
In the case of `CC[Si]1(CC)c2ccccc2N(C(=O)CCCCCNC(=O)/C=C/c2cccnc2)C1C` (stereo not drawn) [DGMS-RAR-5•O3SMe], in series [1], the inhibition (commonly the relative decrease from the control value, in per cent) at 10 µM was found to be 99% and the half-inhibitory concentration (IC50) was determined as 0.014 µM. Besides, in series [2], the “Solubility (2.5% v/v DMSO/water)” value is “Good”.
As for `O=C(/C=C/c1cccnc1)NCCCCCC(=O)N1CCCCc2ccccc21` [DGMS-RAR-3], the 50% inhibitory concentration (IC50) in series [1] was determined as 0.072 µM.
Turning to `[2H][C@@H](C(=O)NCCCCCCn1ccc2cc(OC)ccc21)[C@@H]([2H])c1cccnc1` [5.2.3f D2], in series [1], the concentration for half-maximal inhibition (IC50) was determined as 0.665 µM.
Same read-out and setting: the value for `COC(=O)Cc1cn(CCCCCCNC(=O)/C=C/c2cccnc2)c2ccccc12` [5.2.3h] was 0.1 µM; that for `CC1Cc2ccccc2N1C(=O)CCCCCNC(=O)/C=C/c1cccnc1` (stereo not drawn) [DGMS-RAR1] was 0.049 µM.
As to `O=C(O)Cc1cn(CCCCCCNC(=O)/C=C/c2cccnc2)c2ccccc12` [DGMS-RAR-PEG2A], in series [1], 10 µM produced 98% inhibition and the half-inhibitory concentration (IC50) was found to be 0.04 µM.
Consider `COCCOCCOCCOCCOC(=O)CCC(=O)Oc1ccc2c(ccn2CCCCCCNC(=O)/C=C/c2cccnc2)c1` [DGMS-RAR-mPEG3], for which, in series [1], testing at 10 µM gave an inhibition of 97% and the 50% inhibitory concentration (IC50) was determined as 0.02 µM. In series [2], the “Solubility (2.5% v/v DMSO/water)” value is recorded as “good”.
In the case of `O=C(/C=C/c1cccnc1)NCCCCCCn1c(-c2ccccc2)cc2cc3c(cc21)OCO3`, the IC50 in series [1] was 0.386 µM.
On the same count and under the same terms, then `[2H][C@@H](C(=O)NCCCCCC(=O)N1CCc2cc(O)ccc21)[C@@H]([2H])c1cccnc1`, with 0.189 µM.
On the same count and under the same terms, the value for `O=C(/C=C/c1cccnc1)NCCCCCCn1ccc2cc(I)ccc21` [5.2.3l] was 0.155 µM; that for `CC1Cc2ccccc2N1CCCCCCNC(=O)/C=C/c1cccnc1` (stereo not drawn) [DGMS-RAR-1•HCl] was 0.047 µM.
As for `O=C(/C=C/c1cccnc1)NCCCCCCn1c(-c2ccccc2)cc2ccccc21` [DGMS-RARI•HO3SMe], in series [1], the “% NAMPT Inhibition at 10 μM” value is 98% and the IC50 is 0.012 µM.
`[2H][C@@H](C(=O)NCCCCCC(=O)N1C[Si](C)(C)c2ccccc21)[C@@H]([2H])c1cccnc1` [DGMS-RAR-4D2]: the IC50 in series [1] was 2.31 µM.
On the same count and under the same terms, the value for `CC[Si]1(CC)c2ccccc2N(C(=O)CCCCCNC(=O)/C=C/c2cccnc2)C1C` (stereo not drawn) [DGMS-RAR-5•OTs] was 0.0103 µM; that for `CC1Cc2ccccc2N1C(=O)CCCCCNC(=O)/C=C/c1cccnc1` (stereo not drawn) [DGMS-RAR-1•HO3SMe] was 0.034 µM.
Regarding `CCOC(=O)Cc1cn(CCCCCCNC(=O)/C=C/c2cccnc2)c2ccccc12` [DGMS-RAR-PEG2E], in series [1], 10 µM produced 99% inhibition and the half-maximal inhibitory concentration (IC50) was below 0.01 µM.
Turning to `[2H][C@@H](C(=O)NCCCCCCn1ccc2cc(OCc3ccccc3)ccc21)[C@@H]([2H])c1cccnc1` (relative stereo) [DGMS-RAR-6 D2], in series [1], the IC50 is 0.233 µM.
Consider `O=C(/C=C/c1cccnc1)NCCCCCCn1ccc2cc(OCc3ccccc3)ccc21` [DGMS-RAR-6•HO3SMe], for which, in series [1], the “% NAMPT Inhibition at 10 μM” value was 97% and the IC50 was around 0.1 µM.
`Cc1ccc2c(ccn2CCCCCCNC(=O)/C=C/c2cccnc2)c1` [5.2.3g]: in series [1], the half-inhibitory concentration (IC50) amounted to 0.17 µM.
The same measure, in the same setting: then `O=C(O)CC1CN(C(=O)CCCCCNC(=O)/C=C/c2cccnc2)c2ccccc21` (stereo not drawn) [DGMS-RAR-PEG3A], with 1.05 µM.
The same measure, in the same setting: the value for `O=C(/C=C/c1cccnc1)NCCCCCCn1ccc2cccnc21` was 1.54 µM; that for `Cc1cc2ccccc2n1CCCCCCNC(=O)CCc1cccnc1` was 0.97 µM.
The same measure, in the same setting: the value for `O=C(CCc1cccnc1)NCCCCCCn1ccc2cc(O)ccc21` [5.2.3t H2] was 1.2 µM.
With `O=C(/C=C/c1cccnc1)NCCCCCCN1c2ccccc2CC1c1ccccc1` (stereo not drawn) [5.2.3e], in series [1], the IC50 stood at 0.026 µM.
With `COc1ccc2c(ccn2CCCCCCNC(=O)CCc2cccnc2)c1`, the concentration for half-maximal inhibition (IC50) in series [1] stood at 0.674 µM.
On to `O=C(/C=C/c1cccnc1)NCCCCCCn1ccc2cc(OCc3ccccc3)ccc21` [DGMS-RAR-6•HCl], for which, in series [1], the inhibition at 10 µM came to 97% and the half-inhibitory concentration (IC50) is around 0.1 µM.
Regarding `O=C(CCc1cccnc1)NCCCCCCn1ccc2ccncc21` [5.2.3b H2], the IC50 in series [1] stood at 2.14 µM.
Still for that read-out and setting: the value for `O=C(CCc1cccnc1)NCCCCCCN1c2ccccc2CCc2ccccc21` [DGMS-RAR-5.2.3c H2] was 0.1 µM; that for `Cc1ccc2c(ccn2CCCCCCNC(=O)CCc2cccnc2)c1` was 1.53 µM; that for `C[Si]1(C)CN(C(=O)CCCCCNC(=O)/C=C/c2cccnc2)c2ccccc21` [DGMS-RAR-4] was 0.141 µM.
The same measure, in the same setting: the value for `O=C(/C=C/c1cccnc1)NCCCCCCn1ccc2cc(OCc3ccccc3)ccc21` [DGMS-RAR-6] was 1.01 µM; that for `[2H][C@@H](C(=O)NCCCCCC(=O)N1c2ccccc2[Si](CC)(CC)C1C)[C@@H]([2H])c1cccnc1` (stereo partly drawn) [DGMS-RAR-5D2] was 0.668 µM; that for `O=C(CCc1cccnc1)NCCCCCCn1ccc2cc(OCc3ccccc3)ccc21` [DGMS-RAR-6 H2] was 0.582 µM.
The same measure, in the same setting: the value for `O=C(/C=C/c1cccnc1)NCCCCCCn1ccc2cnccc21` [5.2.3k] was 0.11 µM.
Regarding `Cl.O=C(/C=C/c1cccnc1)NCCCCCCn1c(-c2ccccc2)cc2ccccc21` [DGMS-RARI•HCl], in series [1], the “% NAMPT Inhibition at 10 μM” value is 98% and the IC50 stood at 0.032 µM. In series [2], the “Solubility (2.5% v/v DMSO/water)” value is “Moderate”.
For the compound `Cc1cc2ccccc2n1CCCCCCNC(=O)/C=C/c1cccnc1` [5.2.3a], the IC50 in series [1] turned out to be 0.082 µM.
The same measure, in the same setting: then `O=C(/C=C/c1cccnc1)NCCCCCCN1c2ccccc2CCc2cc(Br)ccc21` [5.2.3d], with 0.071 µM; and `[2H][C@@H](C(=O)NCCCCCC(=O)N1c2ccccc2CC1C)[C@@H]([2H])c1cccnc1` (stereo partly drawn) [DGMS-RAR-1 D2], with 0.632 µM.
Same read-out and setting: then `O=C(/C=C/c1cccnc1)NCCCCCCn1c(-c2ccccc2)cc2cc(O)c(O)cc21`, with 0.124 µM.
The same measure, in the same setting: the value for `O=C(/C=C/c1cccnc1)NCCCCCCn1ccc2ccncc21` [5.2.3b] was 0.23 µM; that for `O=C(CCc1cccnc1)NCCCCCCn1ccc2cccnc21` was 2.4 µM.
